Experimental data as given in patent publication US7250489B2, “Purified linear polypeptide epitope from walnuts and associated methods” (priority 2001, dated 2007).
No end group written: not given here.

Assays:
Set-up in all cases: species or system human
[1] = system: IgE of walnut-allergic patients' sera; test: IgE binding to solid phase synthetic peptides (SPOTs analysis); conditions: for number of patients' sera positive for the peptide: 20 individual patients' sera
Source text: The study was approved by the Human Subjects Review Committee at the University of California, Davis. Sera from 20 walnut-allergic patients with a convincing history of life-threatening systemic allergic reactions to walnuts, positive ImmunoCAP assays (Pharmacia, Inc., Diagnostics, Columbus, Ohio), and evidence of IgE against rJug r 1 (see below) were used in this study. Control sera were obtained from atopic patients with no history of walnut sensitivity, and one patient with life-threatening reactions to walnuts, positive ImmunoCAP assay, positive serum IgE immunoblot to walnut proteins, but negative for binding to the 2S albumin.
Based on the published amino acid sequence of Jug r 1 and our unpublished data determining the subunit cleavage sites,^6 twenty-five 13-amino acid peptides, offset by three amino acids, were synthesized which corresponded to the entire 64-amino acid length of the large subunit (FIG. 1A) and 26-amino acid length of the small subunit (FIG. 1B). Additional peptides bearing the target epitope (QGLRGEEMEEMV), SEQ ID NO:1, mutated forms of this peptide, and a non-IgE binding peptide (LSQRGLQSSSV), SEQ ID NO:6, were also synthesized. […] versions of the target peptide were created via a single site alanine substitution at each position along the amino acid sequence, and six mutated peptides were synthesized using multiple alanine substitutions, as shown in FIG. 6.
Peptides were synthesized on derivatized cellulose sheets using 9-fluorenlymethoxy carbonyl-derived (Fmoc) amino acids as described by the manufacturer (Genosys Biotechnologies, Inc., The Woodlands, Tex.). Briefly, cellulose membranes containing free hydroxy groups were esterfied with an Fmoc-amino acid dissolved in 1-methyl-2 pyrrolidione. The coupling reaction was followed by washing in N,N-dimethylformamide (DMF) and the amino acids were acetylated with acetic anhydride. The membranes were deprotected by washing in DMF and incubation with a solution of 20% piperidine in DMF followed by another wash in DMF. Coupling, acetylation, and deprotection steps were repeated for each cycle. During the final cycle, a mixture of dichloromethane, trifluoroacetic acid, and triisobutylsilane (1:1:0.05) was used to deprotect the acid-labile amino acid side chains.
(§1) The peptide-containing membranes were washed in TBS and incubated o/n at RT in blocking solution as directed by the manufacturer (Genosys Biotechnologies, Inc., The Woodlands, Tex.). Membranes were then washed in TBS-T for 10 min and incubated o/n at 4° C. with individual patient's serum or pooled patients' sera diluted 1:5 in blocking buffer (total sera:blocking buffer). This incubation was followed by three 5-min washes in TBS-T and an o/n (4° C.) incubation with ^125I-anti-human IgE (Hycor Biomedical Inc., Garden Grove, Calif.) diluted 1:10 in a mixture of PBS, 5% nonfat dry milk, and 0.05% Tween-20. Three final 10 min washes in PBS/0.05% Tween-20 were performed and IgE-peptide reactivity identified after a 48 hr exposure at −70° C. to Kodak Biomax x-ray film.

[2] = system: E1-specific IgE of patients' sera; test: Inhibition by soluble epitope peptide of IgE binding to solid-phase E1 peptide
Procedure: as §1
A soluble form of an identified IgE-reactive peptide is (QGLRGEEMEEMV) was synthesized by Fmoc protocols on an automated peptide synthesizer (Model 433A, Applied Biosystems, Foster City, Calif.).
(§2) To test the specificity and reactivity of the epitope-specific IgE, control, pooled and fractionated patients' sera were pre-incubated o/n at 4° C. with different amounts (70, 7.0, and 0.7 μg) of the soluble epitope peptide, or a soluble non-specific peptide. […] Detection of IgE binding to the solid-phase synthetic peptides and dot-blotted rJug r 1 was detected using ^125I-anti-human IgE and ECL+, respectively, as described earlier.

[3] = system: patient serum IgE binding to rJug r 1; test: Inhibition by soluble epitope peptide of IgE binding to dot-blotted rJug r 1
Procedure: For dot-blot assays, a graphite pencil was used to circumscribe 4 mm×8 mm elipses on a dry 0.4 μm NC membrane (Shleicher & Schuell; Keen, N.H.). The NC was incubated in distilled-deionized water (ddH2O) on a rocking table for 5 min and allowed to air dry before each dot was loaded with 0.11 μg of rJug r 1 in 2 μl of ddH2O. The antigen-loaded NC was then rinsed in ddH2O as described above, placed protein side up on 3MM paper (Whatman Intl. Ltd., Maidstone, England), and dried under a 60-watt light until all moisture was removed. […]
as §2

[4] = of the 20 patients tested, FIG. 4

Sequence | number of patients' sera positive for the peptide [1] | number of patients exhibiting moderate recognition of the epitope peptide [1, 4] | number of patients exhibiting strong recognition of the epitope peptide [1, 4] | number of patients exhibiting weak recognition of the epitope peptide [1, 4] | number of patients showing no recognition of the epitope peptide [1, 4] | inhibition of binding of E1-specific IgE to the solid phase epitope ([2]; 70 μg soluble peptide) | inhibition of IgE binding to solid-phase E1 peptide ([2]; 70, 7.0, 0.7 μg peptide pre-incubated with whole patients' sera, FIG. 5C) | inhibition of IgE binding to rJug r 1, eluate (E1 epitope-specific) IgE fractions ([3]; 70 μg soluble peptide, affinity column purified IgE fractions) | inhibition of binding of IgE to the intact rJug r 1 ([3]; patients' IgE, soluble peptide)
QGLRGEEMEEMV (not fully specified; listed as Juglans regia) [E1, solid-phase and soluble forms] | 15 | six | five | four | five | completely inhibit | Partial to complete inhibition | Inhibition was again observed | did not completely inhibit
LSQRSQQQCRQ [(−) peptide, reference compound] | none |  |  |  |  |  |  |  | 
